{"source": "patent US7700644B2", "about": "“Isoflavonoid dimers” (Novogen Research Pty Ltd, priority 2005, dated 2010)", "key": {"NCI-H23 (Lung)": {"system": "NCI-H23 (Lung)", "experiment": "In vitro cytotoxicity, MTT proliferation assay, NCI-H23", "format": "cell-based", "details": "Homo sapiens", "procedure": "(§1) The human pancreatic cancer cell line, HPAC (CRL-2119) was routinely cultured in 1:1 mixture DMEM (Sigma) plus Ham's F12 (Sigma) medium containing HEPES (15 mM), insulin (0.002 mg/ml), transferrin (0.005 mg/ml), hydrocortisone, (40 ng/ml), epidermal growth factor (10 ng/ml). The ovarian cancer cell line CP70 was obtained as a gift from Dr. Gil Mor (Yale University) and cultured in a 1:1 mixture DMEM plus Ham's F12 medium, and SKOV-3 was purchased from ATCC and cultured in McCoy's 5a medium. The breast cancer cell line MDA-MB-468 cultured in Leibovitz's L-15 medium.\n(§2) All cultures were supplemented with 10% FCS(CSL, Australia), penicillin (100 U/ml), streptomycin ([…]), L-glutamine (2 mM) and sodium bicarbonate (1.2 g/L), and cultured at 37° C. in a humidified atmosphere of 5% CO2. All remaining cell lines were purchased from ATCC (Maryland, USA) except where noted.\n(§3) IC50 values were determined for each cell line. Cells were seeded in 96-well plates at an appropriate cell density as determined from growth kinetics analysis. […] Cell proliferation was assessed after the addition of 20 μl of 3-4,5 dimethylthiazol-2,5-diphenyl tetrazolium bromide (MTT, 2.5 mg/ml in PBS, Sigma) for 3-4 hrs at 37° C. according to manufacturer's instructions. IC50 values were calculated from semi-log plots of % of control proliferation on the y-axis against log dose on the x-axis."}, "MM200 (Melanoma)": {"system": "MM200 (Melanoma)", "experiment": "In vitro cytotoxicity, MTT proliferation assay, MM200", "format": "cell-based, human", "details": "Homo sapiens", "procedure": "as §1, §2\n(§4) IC50 values were determined for each cell line. Cells were seeded in 96-well plates at an appropriate cell density as determined from growth kinetics analysis. NFFs were cultured for 5 days and RK-13s for 24 hrs in the absence and presence of the test compounds. Cell proliferation was assessed after the addition of 20 μl of 3-4,5 dimethylthiazol-2,5-diphenyl tetrazolium bromide (MTT, 2.5 mg/ml in PBS, Sigma) for 3-4 hrs at 37° C. according to manufacturer's instructions. IC50 values were calculated from semi-log plots of % of control proliferation on the y-axis against log dose on the x-axis."}, "[1]": {"system": "Neonatal foreskin fibroblasts (NFF)", "experiment": "Normal cell toxicity, MTT proliferation assay, NFF", "format": "cell-based, human", "details": "Homo sapiens, 120 h; NFF fibroblast, cultured 5 days, MTT", "procedure": "(§5) Neonatal foreskin fibroblasts (NFF) were a gift from Dr. Peter Parsons (Queensland Institute of Medical Research). RK-13 (rabbit kidney) cells were obtained from Miller Whalley (Macquarie University). Both cell types were cultured in RPMI supplemented with 10% FCS (CSL, Australia), penicillin (100 U/ml), streptomycin ([…]), L-glutamine (2 mM) and sodium bicarbonate (1.2 g/L), and cultured at 37° C. in a humidified atmosphere of 5% CO2.\nas §4\nDuplicate cytotoxicity assays against NFF cells were conducted with dehydroequol (DHE), 4,9-dihydroxy-14,15-dimethoxy-12a-(3′,4′-dimethoxyphenyl)-3,10-dimethyl-2,11-dioxa-(1H,12H)-6b,6c,12a,16b-tetrahydronaphtho[1,2-g]chrysene (2) from Example 6.1 and cisplatin."}, "MCF-7 (Breast)": {"system": "MCF-7 (Breast)", "experiment": "In vitro cytotoxicity, MTT proliferation assay, MCF-7", "format": "cell-based, human", "details": "Homo sapiens, MCF7; Breast MCF-7", "procedure": "as §1, §2, §4"}, "[2]": {"system": "human pancreatic cancer cell line, HPAC (CRL-2119)", "experiment": "In vitro cytotoxicity, MTT proliferation assay, CRL-2119", "format": "cell-based", "details": "Homo sapiens, HPAC; Pancreatic CRL-2119", "procedure": "as §1, §2, §4"}, "RPMI-8226 (Leukemic)": {"system": "RPMI-8226 (Leukemic)", "experiment": "In vitro cytotoxicity, MTT proliferation assay, RPMI-8226", "format": "cell-based", "details": "Homo sapiens; Leukemic RPMI-8226", "procedure": "as §1, §2, §3"}, "MM96L (Melanoma)": {"system": "MM96L (Melanoma)", "experiment": "In vitro cytotoxicity, MTT proliferation assay, MM96L", "format": "cell-based, human", "details": "Homo sapiens", "procedure": "as §1, §2, §4"}, "[3]": {"system": "ovarian cancer cell line CP70", "experiment": "In vitro cytotoxicity, MTT proliferation assay, CP70", "format": "cell-based, human", "details": "Homo sapiens", "procedure": "as §1, §2, §4"}, "HT-29 (Colorectal)": {"system": "HT-29 (Colorectal)", "experiment": "In vitro cytotoxicity, MTT proliferation assay, HT-29", "format": "cell-based, human", "details": "Homo sapiens; Colorectal HT-29", "procedure": "as §1, §2, §4"}, "LNCaP (Prostate)": {"system": "LNCaP (Prostate)", "experiment": "In vitro cytotoxicity, MTT proliferation assay, LNCaP", "format": "cell-based, human", "details": "Homo sapiens", "procedure": "as §1, §2, §4"}, "[4]": {"system": "breast cancer cell line MDA-MB-468", "experiment": "In vitro cytotoxicity, MTT proliferation assay, MDA-MB-468", "format": "cell-based, human", "details": "Homo sapiens; Breast MDA-MB-468", "procedure": "as §1, §2, §4"}, "DU145 (Prostate)": {"system": "DU145 (Prostate)", "experiment": "In vitro cytotoxicity, MTT proliferation assay, DU145", "format": "cell-based, human", "details": "Homo sapiens, DU-145", "procedure": "as §1, §2, §4"}, "NCI-H460 (Lung)": {"system": "NCI-H460 (Lung)", "experiment": "In vitro cytotoxicity, MTT proliferation assay, NCI-H460", "format": "cell-based, human", "details": "Homo sapiens", "procedure": "as §1, §2, §4"}, "SKOV-3 (Ovarian)": {"system": "SKOV-3 (Ovarian)", "experiment": "In vitro cytotoxicity, MTT proliferation assay, SKOV-3", "format": "cell-based, human", "details": "Homo sapiens, SK-OV-3; Ovarian SKOV-3", "procedure": "as §1, §2, §4"}, "[5]": {"system": "RK-13 (rabbit kidney) cells", "experiment": "Normal cell toxicity, MTT proliferation assay, rabbit kidney cells", "format": "cell-based", "details": "Oryctolagus cuniculus, 24 hrs", "procedure": "as §5, §4"}, "[6]": {"experiment": "Oral pharmacokinetics in mice", "format": "in vivo, female BALB/c mice", "details": "female, BALB/c, mouse, blood, 50 mg/kg, oral gavage, read-out: Free concentration in blood", "procedure": "4,9-Dihydroxy-14,15-dimethoxy-12a-(3′,4′-dimethoxyphenyl)-3,10-dimethyl-2,11-dioxa-(1H,12H)-6b,6c,12a,16b-tetrahydronaphtho[1,2-g]chrysene (2) from Example 6.1 was prepared as homogenous suspensions in 1% CMC (m:v, water). The Cpd. 2 formulation was delivered orally by gavage to female BALB/c mice at a dosage of 50 mg/kg. Three animals were allocated to each time point (15 min, 30 min, 1 hr, 4 hr and 24 hr). At each respective time point, animals were euthanased by cervical dislocation and blood collected. Free Cpd."}, "HCT-15 (Colorectal)": {"system": "HCT-15 (Colorectal)", "experiment": "In vitro cytotoxicity, MTT proliferation assay, HCT-15", "format": "cell-based, human", "details": "Homo sapiens; Colorectal HCT-15", "procedure": "as §1, §2, §4"}, "A2780 (Ovarian)": {"system": "A2780 (Ovarian)", "experiment": "In vitro cytotoxicity, MTT proliferation assay, A2780", "format": "cell-based, human", "details": "Homo sapiens", "procedure": "as §1, §2, §4"}, "PC3 (Prostate)": {"system": "PC3 (Prostate)", "experiment": "In vitro cytotoxicity, MTT proliferation assay, PC3", "format": "cell-based, human", "details": "Homo sapiens", "procedure": "as §1, §2, §4"}, "HTB-138 (Glioma)": {"system": "HTB-138 (Glioma)", "experiment": "In vitro cytotoxicity, MTT proliferation assay, HTB-138", "format": "cell-based, human", "details": "Homo sapiens; Glioma HTB-138", "procedure": "as §1, §2, §4"}, "CCRF-CEM (Leukemic)": {"system": "CCRF-CEM (Leukemic)", "experiment": "In vitro cytotoxicity, MTT proliferation assay, CCRF-CEM", "format": "cell-based", "details": "Homo sapiens", "procedure": "as §1, §2, §3"}}, "data": [{"smiles": "Oc1ccc(C2=Cc3ccc(O)cc3OC2)cc1", "note": "[DHE, 3-(4-hydroxyphenyl)chrom-3-en-7-ol]", "values": [{"measurement": "IC50", "setting": "NCI-H23 (Lung)", "value": "8.75 ± 7.2", "unit": "µM"}, {"measurement": "IC50", "setting": "MM200 (Melanoma)", "value": 4.8, "unit": "µM"}, {"measurement": "IC50", "setting": "[1]", "value": "> 150", "unit": "µM"}, {"measurement": "IC50", "setting": "MCF-7 (Breast)", "value": "21.5 ± 13.2", "unit": "µM"}, {"measurement": "IC50", "setting": "[2]", "value": "56.6 ± 16.8", "unit": "µM"}, {"measurement": "IC50", "setting": "RPMI-8226 (Leukemic)", "value": "3.72 ± 0.08", "unit": "µM"}, {"measurement": "IC50", "setting": "MM96L (Melanoma)", "value": 4.7, "unit": "µM"}, {"measurement": "IC50", "setting": "[3]", "value": "1.69 ± 0.62", "unit": "µM"}, {"measurement": "IC50", "setting": "HT-29 (Colorectal)", "value": "50.5 ± 21.9", "unit": "µM"}, {"measurement": "IC50", "setting": "LNCaP (Prostate)", "value": "4.8 ± 3.8", "unit": "µM"}, {"measurement": "IC50", "setting": "[4]", "value": "7.9 ± 3.5", "unit": "µM"}, {"measurement": "IC50", "setting": "DU145 (Prostate)", "value": "5.95 ± 1.5", "unit": "µM"}, {"measurement": "IC50", "setting": "NCI-H460 (Lung)", "value": "10.6 ± 3.8", "unit": "µM"}, {"measurement": "IC50", "setting": "SKOV-3 (Ovarian)", "value": "21.8 ± 4.65", "unit": "µM"}, {"measurement": "IC50", "setting": "[5]", "value": "> 150", "unit": "µM"}, {"measurement": "concentration at 15 min", "setting": "[6]; Time 0.25 (15 min)", "value": 3300, "unit": "nM"}, {"measurement": "concentration at 30 min", "setting": "[6]; Time 0.5 (30 min)", "value": 2900, "unit": "nM"}, {"measurement": "concentration at 1 h", "setting": "[6]; Time 1 (1 hr)", "value": 1500, "unit": "nM"}, {"measurement": "concentration at 4 h", "setting": "[6]; Time 4 (4 hr)", "value": 1300, "unit": "nM"}, {"measurement": "concentration at 24 h", "setting": "[6]; Time 24 (24 hr)", "value": 150, "unit": "nM"}, {"measurement": "IC50", "setting": "HCT-15 (Colorectal)", "value": "24.4 ± 12.6", "unit": "µM"}, {"measurement": "IC50", "setting": "A2780 (Ovarian)", "value": "1.7 ± 0.61", "unit": "µM"}, {"measurement": "IC50", "setting": "PC3 (Prostate)", "value": "9.09 ± 8.12", "unit": "µM"}, {"measurement": "IC50", "setting": "HTB-138 (Glioma)", "value": "7.35 ± 0.89", "unit": "µM"}, {"measurement": "IC50", "setting": "CCRF-CEM (Leukemic)", "value": "1.7 ± 0.68", "unit": "µM"}]}]}
